Data taken from ChEMBL document CHEMBL1201862, “PubChem BioAssay data set” (2004).
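Five concentrations, 48 hours, 96-well plates. Here, GI50 denotes the concentration required for 50% inhibition of growth.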 Activity calls are given as the source filed them. Rule as the data show it: active = GI50 up to about 1.1 µM and inactive = higher.

Columns and labels:
Assay in all cases: inhibition of tumour cell growth, NCI panel, 48 h
786-0 = system: 786-0
A498 = system: A498
DU-145 = system: DU-145
EKVX = system: EKVX
HCT-116 = system: HCT-116
HCT-15 = system: HCT-15
HOP-62 = system: HOP-62
HOP-92 = system: HOP-92
IGROV-1 = system: IGROV-1
MDA-MB-231 = system: MDA-MB-231
NCI-H460 = system: NCI-H460
OVCAR-4 = system: OVCAR-4
PC-3 = system: PC-3
RPMI-8226 = system: RPMI-8226
SF-295 = system: SF-295
SF-539 = system: SF-539
SK-MEL-28 = system: SK-MEL-28
SNB-19 = system: SNB-19
UACC-62 = system: UACC-62

For `CO[C@H]1[C@@H](O)[C@@H](C)O[C@@H](O[C@H]2CC[C@@]3(C)[C@H](CC[C@@H]4[C@@H]3CC[C@]3(C)[C@@H](C5=CC(=O)OC5)[C@@H](OC(C)=O)C[C@]43O)C2)[C@@H]1O` [NERITALOSIDE], the GI50 (786-0) was 0.0176 µM (active), the GI50 (A498) was 0.281 µM (active) and the GI50 (DU-145) was 0.0176 µM (active). The GI50 (EKVX) was 0.0156 µM (active), the GI50 (HCT-116) was 0.0219 µM (active) and the GI50 (HCT-15) was 0.0973 µM. The GI50 (HOP-62) was 0.0253 µM (active), the GI50 (HOP-92) was 0.149 µM (active) and the GI50 (IGROV-1) was 0.0371 µM (active). The GI50 (MDA-MB-231) was 0.198 µM (active), the GI50 (NCI-H460) was 0.0165 µM (active) and the GI50 (OVCAR-4) was 0.0601 µM (active). The GI50 (PC-3) was 0.0256 µM (active), the GI50 (RPMI-8226) was 0.17 µM (active) and the GI50 (SF-295) was 0.0461 µM (active). The GI50 (SF-539) was 0.0248 µM (active), the GI50 (SK-MEL-28) was 0.291 µM (active) and the GI50 (SNB-19) was 0.144 µM (active). For the same compound, the GI50 (UACC-62) was 0.1 µM (active).

For `CC(=O)OC1C(O)C(C)OC(OC2C(OC(=O)C3CCC4C(C3)OC3(CC(OC(=O)/C=C/c5ccccc5)C(C)CO3)C43CO3)OC(C)C(O)C2OC(C)=O)C1O` (configuration not stated), the GI50 (786-0) was 0.0132 µM (active), the GI50 (A498) was 0.0526 µM (active) and the GI50 (DU-145) was 0.0103 µM (active). The GI50 (EKVX) was 0.0148 µM (active), the GI50 (HCT-116) was 0.00661 µM (active) and the GI50 (HCT-15) was 0.718 µM. For the same compound, the GI50 (HOP-62) was 0.00951 µM (active), the GI50 (HOP-92) was 0.00581 µM (active) and the GI50 (IGROV-1) was 0.0134 µM (active). The GI50 (MDA-MB-231) was 0.0203 µM (active), the GI50 (NCI-H460) was 0.0131 µM (active) and the GI50 (OVCAR-4) was 0.00752 µM (active). For the same compound, the GI50 (PC-3) was 0.00513 µM (active), the GI50 (RPMI-8226) was 0.00227 µM (active) and the GI50 (SF-295) was 0.0262 µM (active). The GI50 (SF-539) was 0.00736 µM (active), the GI50 (SK-MEL-28) was 0.008 µM (active) and the GI50 (SNB-19) was 0.00617 µM (active). The GI50 (UACC-62) was 0.0108 µM (active).

With `C[S+](C)CC(=O)c1ccc2c(c1)Sc1ccccc1O2` the GI50 (786-0) was 2.72 µM (inactive), the GI50 (A498) was 8.41 µM (inactive) and the GI50 (DU-145) was 4.1 µM (inactive). For the same compound, the GI50 (EKVX) was 3.44 µM (inactive), the GI50 (HCT-116) was 1.32 µM (inactive) and the GI50 (HCT-15) was 2.47 µM. For the same compound, the GI50 (HOP-62) was 13.2 µM (inactive), the GI50 (HOP-92) was 3.74 µM (inactive) and the GI50 (IGROV-1) was 2.75 µM (inactive). For the same compound, the GI50 (MDA-MB-231) was 7.06 µM (inactive), the GI50 (NCI-H460) was 5.3 µM (inactive) and the GI50 (OVCAR-4) was 3.44 µM (inactive). For the same compound, the GI50 (PC-3) was 1.04 µM (active), the GI50 (RPMI-8226) was 2.59 µM (inactive) and the GI50 (SF-295) was 5.25 µM (inactive). For the same compound, the GI50 (SF-539) was 0.69 µM (active), the GI50 (SK-MEL-28) was 7.89 µM (inactive) and the GI50 (SNB-19) was 5.51 µM (inactive). The GI50 (UACC-62) was 3.91 µM (inactive).

`Cc1[nH]c(-c2ccccc2)c(O)c1C(=O)OC12CC3CC(CC(C3)C1)C2` was tested, and the GI50 (786-0) was 14 µM (inactive), the GI50 (A498) was 20.5 µM (inactive) and the GI50 (DU-145) was 15.6 µM (inactive). The GI50 (EKVX) was 13.8 µM (inactive), the GI50 (HCT-116) was 16.7 µM (inactive) and the GI50 (HCT-15) was 11.9 µM. For the same compound, the GI50 (HOP-62) was 14.7 µM (inactive), the GI50 (HOP-92) was 18.8 µM (inactive) and the GI50 (IGROV-1) was 14.1 µM (inactive). The GI50 (MDA-MB-231) was 18.5 µM (inactive), the GI50 (NCI-H460) was 7.82 µM (inactive) and the GI50 (OVCAR-4) was 16.3 µM (inactive). The GI50 (PC-3) was 15.5 µM (inactive), the GI50 (RPMI-8226) was 37 µM (inactive) and the GI50 (SF-295) was 2.93 µM (inactive). For the same compound, the GI50 (SF-539) was 11 µM (inactive), the GI50 (SK-MEL-28) was 14.7 µM (inactive) and the GI50 (SNB-19) was 15 µM (inactive). The GI50 (UACC-62) was 17.3 µM (inactive).

With `CCCCCCCCCCCC[C@@H](O)[C@H]1CCC([C@H](O)CCCCC(=O)CCCCCCCC2=C[C@H](C)OC2=O)O1` (some centres not stated) the GI50 (786-0) was > 31.6 µM (inactive), the GI50 (A498) was 26.2 µM (inactive) and the GI50 (DU-145) was > 50 µM (inactive). For the same compound, the GI50 (EKVX) was 14.1 µM (inactive), the GI50 (HCT-116) was 3.01 µM (inactive) and the GI50 (HCT-15) was 17.9 µM. The GI50 (HOP-92) was > 27 µM (inactive), the GI50 (IGROV-1) was > 50 µM (inactive) and the GI50 (MDA-MB-231) was > 41.7 µM (inactive). For the same compound, the GI50 (NCI-H460) was 2.26 µM (inactive), the GI50 (OVCAR-4) was > 24.9 µM (inactive) and the GI50 (PC-3) was 14.6 µM (inactive). The GI50 (RPMI-8226) was 2.5 µM (inactive), the GI50 (SF-295) was 20.1 µM (inactive) and the GI50 (SF-539) was > 50 µM (inactive). For the same compound, the GI50 (SK-MEL-28) was 19.2 µM (inactive), the GI50 (SNB-19) was > 28.2 µM (inactive) and the GI50 (UACC-62) was 17.4 µM (inactive).

With `COP1(=S)OCC2CCC[C@@H]2O1` (some centres not stated) the GI50 (786-0) was > 100 µM (inactive), the GI50 (A498) was > 100 µM (inactive) and the GI50 (DU-145) was > 100 µM (inactive). The GI50 (HCT-116) was > 100 µM (inactive), the GI50 (HCT-15) was > 100 µM and the GI50 (HOP-92) was > 100 µM (inactive). For the same compound, the GI50 (IGROV-1) was > 100 µM (inactive), the GI50 (MDA-MB-231) was > 100 µM (inactive) and the GI50 (NCI-H460) was > 100 µM (inactive). For the same compound, the GI50 (OVCAR-4) was > 100 µM (inactive), the GI50 (PC-3) was > 100 µM (inactive) and the GI50 (RPMI-8226) was > 100 µM (inactive). For the same compound, the GI50 (SF-295) was > 100 µM (inactive), the GI50 (SF-539) was > 100 µM (inactive) and the GI50 (SK-MEL-28) was > 100 µM (inactive). For the same compound, the GI50 (SNB-19) was > 100 µM (inactive) and the GI50 (UACC-62) was > 100 µM (inactive).

With `Cc1ccc(S(=O)(=O)N2CCCCN(S(=O)(=O)c3ccc(C)cc3)Cc3ccccc3OCCOCCOc3c4cccc3Cc3cccc5c3OCCOCCOc3ccccc3CN(S(=O)(=O)c3ccc(C)cc3)CCCN(S(=O)(=O)c3ccc(C)cc3)Cc3ccccc3OCCOCCOc3c(cccc3C4)Cc3cccc(c3OCCOCCOc3ccccc3C2)C5)cc1` the GI50 (786-0) was > 100 µM (inactive), the GI50 (A498) was 53.2 µM (inactive) and the GI50 (DU-145) was > 100 µM (inactive). The GI50 (EKVX) was > 100 µM (inactive), the GI50 (HCT-116) was > 100 µM (inactive) and the GI50 (HCT-15) was > 100 µM. For the same compound, the GI50 (HOP-62) was > 100 µM (inactive), the GI50 (HOP-92) was > 100 µM (inactive) and the GI50 (IGROV-1) was > 100 µM (inactive). For the same compound, the GI50 (MDA-MB-231) was > 100 µM (inactive), the GI50 (NCI-H460) was > 100 µM (inactive) and the GI50 (OVCAR-4) was > 100 µM (inactive). The GI50 (PC-3) was > 100 µM (inactive), the GI50 (RPMI-8226) was > 100 µM (inactive) and the GI50 (SF-295) was > 100 µM (inactive). The GI50 (SF-539) was > 100 µM (inactive), the GI50 (SNB-19) was > 100 µM (inactive) and the GI50 (UACC-62) was > 100 µM (inactive).

For `CCOC(C[Se]CC(OCC)OCC)OCC`, the GI50 (786-0) was > 100 µM (inactive), the GI50 (A498) was > 100 µM (inactive) and the GI50 (DU-145) was 37.5 µM (inactive). The GI50 (EKVX) was > 100 µM (inactive), the GI50 (HCT-116) was 32.7 µM (inactive) and the GI50 (HCT-15) was 57.9 µM. The GI50 (HOP-92) was 39.6 µM (inactive), the GI50 (IGROV-1) was 24.1 µM (inactive) and the GI50 (MDA-MB-231) was 52.5 µM (inactive). The GI50 (NCI-H460) was 65.9 µM (inactive), the GI50 (OVCAR-4) was 45.3 µM (inactive) and the GI50 (PC-3) was 37.9 µM (inactive). The GI50 (RPMI-8226) was > 100 µM (inactive), the GI50 (SF-295) was 26.1 µM (inactive) and the GI50 (SF-539) was 28.7 µM (inactive). The GI50 (SK-MEL-28) was 49.4 µM (inactive), the GI50 (SNB-19) was 48.8 µM (inactive) and the GI50 (UACC-62) was 28.4 µM (inactive).
